Test results published in US20110190245A1, “NANOSUSPENSION WITH ANTIFUNGAL MEDICATION TO BE ADMINISTERED VIA INHALATION WITH IMPROVED IMPURITY PROFILE AND SAFETY” (priority 2008, published 2011).

System: A. fumigatus
Experiment: Second experiment: survival of immune-suppressed balb-c mice infected intranasally with A. fumigatus conidia
Assay type: in vivo, Aspergillus fumigatus
Parameters: animals that had died by day 6 after infection: dose or concentration left out as unconfirmed
Description: In a second experiment, male balb-c mice were utilized. The animals of all groups were immune-suppressed using 100 mg/kg body weight cyclophosphamide at day −4, −1, 0, 2, 5 and 8. On day −1, the animals received 100 mg/kg cyclophosphamide i.p. and 200 mg/kg cortisone acetate subcutaneous (24±2 hours before infection). Additionally, the animals were treated by inhalation of itraconazole using the same inhalation device as described in the study above. At day 0, the animals were infected intranasally with 2.5×104 A. fumigatus conidia.
Additionally, one group of mice used as reference group was treated with Amphotericin B i.p. using 3 mg/kg daily.
The drug effect was assessed as the number of surviving animals. As expected, 9 out of 12 control animals had already died on day 6 after infection and the remaining animals died with the exception of one until day 9. For animals treated as decribed above, i.e. using the 10% aerosol of itraconazole twice daily, a strong effect was seen.

C[C@@H]1[C@H](O)[C@@H](C)/C=C/C=C/C=C/C=C/C=C/C=C/C=C/[C@H](O[C@@H]2O[C@H](C)[C@@H](O)[C@H](N)[C@@H]2O)C[C@@H]2O[C@](O)(C[C@@H](O)C[C@@H](O)[C@H](O)CC[C@@H](O)C[C@@H](O)CC(=O)O[C@H]1C)C[C@H](O)[C@H]2C(=O)O [Amphothericin B, Amphotericin B]
animals that had died by day 6 after infection (12 per group, control animals): 3 | animals that had died at the end of the observation period (14 days observation, itraconazole 10% aerosol twice daily, Amphotericin B i.p. 3 mg/kg daily): 9 out of 12
